The values that follow come from ChEMBL document CHEMBL3627608, “Crystal structures of human RIP2 kinase catalytic domain complexed with ATP-competitive inhibitors: Foundations for understanding inhibitor selectivity” (Bioorg Med Chem, 2015).

Usually inhibition stands for the change of the read-out against control, counted positive when it falls.

Assay [1] addresses Serine/threonine-protein kinase 26 (Homo sapiens) (UniProt Q9P289). Kind of assay: Inhibition of MST4 (unknown origin) at 10 uM after 120 mins P33 radiolabeled kinase activity assay.
Assay [2] has as its target Serine/threonine-protein kinase Nek7 (Homo sapiens) (UniProt Q8TDX7). In words: Inhibition of NEK7 (unknown origin) at 10 uM after 120 mins P33 radiolabeled kinase activity assay.
The target of assay [3] is Serine/threonine-protein kinase 25 (Homo sapiens) (UniProt O00506). Kind of assay: Inhibition of STK25 (unknown origin) at 10 uM after 120 mins P33 radiolabeled kinase activity assay.
In assay [4] the target is Serine/threonine-protein kinase 24 (Homo sapiens) (UniProt Q9Y6E0). In words: Inhibition of MST3 (unknown origin) at 10 uM after 120 mins P33 radiolabeled kinase activity assay.
The target in assay [5] is Serine/threonine-protein kinase PAK 1 (Homo sapiens) (UniProt Q13153). Kind of assay: Inhibition of PAK1 (unknown origin) at 10 uM after 120 mins P33 radiolabeled kinase activity assay.
Sequence of Serine/threonine-protein kinase PAK 1 (Homo sapiens) (Q13153 whole entry): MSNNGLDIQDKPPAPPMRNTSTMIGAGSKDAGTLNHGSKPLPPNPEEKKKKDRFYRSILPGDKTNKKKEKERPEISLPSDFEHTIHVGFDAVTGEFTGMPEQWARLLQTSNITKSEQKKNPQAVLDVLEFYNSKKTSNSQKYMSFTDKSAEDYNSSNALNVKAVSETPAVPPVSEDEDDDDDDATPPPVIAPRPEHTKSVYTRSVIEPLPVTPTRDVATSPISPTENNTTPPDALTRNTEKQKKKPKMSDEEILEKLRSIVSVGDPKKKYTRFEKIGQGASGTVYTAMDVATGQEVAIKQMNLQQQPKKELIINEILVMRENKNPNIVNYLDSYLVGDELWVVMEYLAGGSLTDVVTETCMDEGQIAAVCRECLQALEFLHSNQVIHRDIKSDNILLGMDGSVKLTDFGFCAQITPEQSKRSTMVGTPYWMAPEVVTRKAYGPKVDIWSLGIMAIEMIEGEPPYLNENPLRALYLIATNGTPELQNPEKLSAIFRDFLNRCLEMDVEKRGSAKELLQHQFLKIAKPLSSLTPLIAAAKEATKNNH
Assay [6] addresses Serine/threonine-protein kinase Nek6 (Homo sapiens) (UniProt Q9HC98). Kind of assay: Inhibition of NEK6 (unknown origin) at 10 uM after 120 mins P33 radiolabeled kinase activity assay.
For assay [7], the target named is Megakaryocyte-associated tyrosine-protein kinase (Homo sapiens) (UniProt P42679). In words: Inhibition of CTK (unknown origin) at 10 uM after 120 mins P33 radiolabeled kinase activity assay.
Sequence of Megakaryocyte-associated tyrosine-protein kinase (Homo sapiens) (P42679 whole entry): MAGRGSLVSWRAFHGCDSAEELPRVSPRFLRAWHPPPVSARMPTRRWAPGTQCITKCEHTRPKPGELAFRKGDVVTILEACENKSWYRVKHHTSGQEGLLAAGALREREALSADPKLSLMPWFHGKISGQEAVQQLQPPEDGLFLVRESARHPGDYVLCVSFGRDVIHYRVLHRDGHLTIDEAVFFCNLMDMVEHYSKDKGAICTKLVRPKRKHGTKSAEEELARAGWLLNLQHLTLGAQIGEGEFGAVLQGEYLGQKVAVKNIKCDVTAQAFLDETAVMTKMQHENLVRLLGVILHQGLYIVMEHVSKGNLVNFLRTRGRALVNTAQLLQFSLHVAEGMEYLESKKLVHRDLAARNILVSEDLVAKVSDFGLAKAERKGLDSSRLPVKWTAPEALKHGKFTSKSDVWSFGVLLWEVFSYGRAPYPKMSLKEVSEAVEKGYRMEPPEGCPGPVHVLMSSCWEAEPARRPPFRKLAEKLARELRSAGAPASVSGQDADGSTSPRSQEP
The target in assay [8] is Tyrosine-protein kinase JAK3 (Homo sapiens) (UniProt P52333). In words: Inhibition of JAK3 (unknown origin) at 10 uM after 120 mins P33 radiolabeled kinase activity assay.
Sequence of Tyrosine-protein kinase JAK3 (Homo sapiens) (P52333 whole entry): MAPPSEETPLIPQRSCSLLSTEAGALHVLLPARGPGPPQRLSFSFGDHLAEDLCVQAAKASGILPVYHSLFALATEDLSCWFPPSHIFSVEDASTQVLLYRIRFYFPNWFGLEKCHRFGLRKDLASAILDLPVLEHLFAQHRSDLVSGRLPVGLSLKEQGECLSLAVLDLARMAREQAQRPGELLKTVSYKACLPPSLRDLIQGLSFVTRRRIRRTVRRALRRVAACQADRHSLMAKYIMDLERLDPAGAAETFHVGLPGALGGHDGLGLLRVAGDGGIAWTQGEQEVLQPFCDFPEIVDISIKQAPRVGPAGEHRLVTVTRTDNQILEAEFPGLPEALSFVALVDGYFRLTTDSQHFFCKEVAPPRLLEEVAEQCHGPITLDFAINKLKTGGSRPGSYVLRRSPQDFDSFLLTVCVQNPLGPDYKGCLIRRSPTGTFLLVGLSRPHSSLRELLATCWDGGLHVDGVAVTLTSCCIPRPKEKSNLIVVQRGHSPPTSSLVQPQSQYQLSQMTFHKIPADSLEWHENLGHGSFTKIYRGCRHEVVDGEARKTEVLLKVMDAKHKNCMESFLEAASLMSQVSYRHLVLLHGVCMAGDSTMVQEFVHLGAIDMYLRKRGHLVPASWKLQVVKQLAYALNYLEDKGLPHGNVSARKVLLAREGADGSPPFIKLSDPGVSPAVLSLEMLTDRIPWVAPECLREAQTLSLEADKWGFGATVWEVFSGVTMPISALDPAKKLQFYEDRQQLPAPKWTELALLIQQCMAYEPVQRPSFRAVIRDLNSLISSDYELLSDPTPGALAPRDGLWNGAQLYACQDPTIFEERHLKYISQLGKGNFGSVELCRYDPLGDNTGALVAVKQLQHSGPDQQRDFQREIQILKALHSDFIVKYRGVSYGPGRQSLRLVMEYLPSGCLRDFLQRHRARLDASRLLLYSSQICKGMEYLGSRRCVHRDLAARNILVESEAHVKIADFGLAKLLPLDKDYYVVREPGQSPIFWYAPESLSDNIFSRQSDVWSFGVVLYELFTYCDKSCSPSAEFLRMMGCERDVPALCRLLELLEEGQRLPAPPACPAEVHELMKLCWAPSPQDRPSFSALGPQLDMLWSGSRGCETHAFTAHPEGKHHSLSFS
In assay [9] the target is Dual specificity tyrosine-phosphorylation-regulated kinase 4 (Homo sapiens) (UniProt Q9NR20). In words: Inhibition of DYRK4 (unknown origin) at 10 uM after 120 mins P33 radiolabeled kinase activity assay.
Assay [10] concerns the target Serine/threonine-protein kinase 3 (Homo sapiens) (UniProt Q13188). Kind of assay: Inhibition of MST2 (unknown origin) at 10 uM after 120 mins P33 radiolabeled kinase activity assay.
The target in assay [11] is Testis-specific serine/threonine-protein kinase 6 (Homo sapiens) (UniProt Q9BXA6). In words: Inhibition of SSTK (unknown origin) at 10 uM after 120 mins P33 radiolabeled kinase activity assay.
Sequence of Testis-specific serine/threonine-protein kinase 6 (Homo sapiens) (Q9BXA6 whole entry): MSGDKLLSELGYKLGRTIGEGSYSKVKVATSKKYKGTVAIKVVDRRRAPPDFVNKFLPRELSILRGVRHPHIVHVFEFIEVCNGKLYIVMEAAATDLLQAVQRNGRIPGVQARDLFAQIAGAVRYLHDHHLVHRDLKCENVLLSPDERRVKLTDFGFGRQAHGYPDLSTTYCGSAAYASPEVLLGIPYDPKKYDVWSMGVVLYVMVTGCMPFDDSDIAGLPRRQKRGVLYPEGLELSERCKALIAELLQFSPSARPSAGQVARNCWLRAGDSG
The target in assay [12] is Mitogen-activated protein kinase 7 (Homo sapiens) (UniProt Q13164). In words: Inhibition of ERK5 (unknown origin) at 10 uM after 120 mins P33 radiolabeled kinase activity assay.
Assay [13] deals with LIM domain kinase 2 (Homo sapiens) (UniProt P53671). Kind of assay: Inhibition of LIMK2 (unknown origin) at 10 uM after 120 mins P33 radiolabeled kinase activity assay.
Sequence of LIM domain kinase 2 (Homo sapiens) (P53671 whole entry, looked up, the tested form may be a part): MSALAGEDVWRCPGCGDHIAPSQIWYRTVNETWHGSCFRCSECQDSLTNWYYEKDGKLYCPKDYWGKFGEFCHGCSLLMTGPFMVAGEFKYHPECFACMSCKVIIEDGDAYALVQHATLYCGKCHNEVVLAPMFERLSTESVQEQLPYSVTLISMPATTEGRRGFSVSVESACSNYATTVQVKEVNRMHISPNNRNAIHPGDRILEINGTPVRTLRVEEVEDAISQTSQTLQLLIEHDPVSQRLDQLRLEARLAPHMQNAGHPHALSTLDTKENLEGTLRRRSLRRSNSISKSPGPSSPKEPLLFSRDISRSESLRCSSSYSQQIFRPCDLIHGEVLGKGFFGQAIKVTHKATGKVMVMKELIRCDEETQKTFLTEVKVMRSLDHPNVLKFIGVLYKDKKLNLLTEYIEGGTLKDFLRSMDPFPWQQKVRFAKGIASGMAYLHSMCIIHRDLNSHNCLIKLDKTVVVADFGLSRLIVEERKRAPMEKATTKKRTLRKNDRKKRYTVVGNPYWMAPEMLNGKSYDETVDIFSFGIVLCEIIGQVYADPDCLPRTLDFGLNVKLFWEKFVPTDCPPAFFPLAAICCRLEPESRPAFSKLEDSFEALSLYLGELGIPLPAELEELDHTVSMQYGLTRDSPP
Assay [14] concerns the target Wee1-like protein kinase (Homo sapiens) (UniProt P30291). In words: Inhibition of WEE1 (unknown origin) at 10 uM after 120 mins P33 radiolabeled kinase activity assay.
For assay [15], the target named is Protein kinase C theta type (Homo sapiens) (UniProt Q04759). Kind of assay: Inhibition of PKCtheta (unknown origin) at 10 uM after 120 mins P33 radiolabeled kinase activity assay.
Assay [16] deals with Mitogen-activated protein kinase 10 (Homo sapiens) (UniProt P53779). In words: Inhibition of JNK3 (unknown origin) at 10 uM after 120 mins P33 radiolabeled kinase activity assay.
The target in assay [17] is Mitogen-activated protein kinase kinase kinase 8 (Homo sapiens) (UniProt P41279). Kind of assay: Inhibition of COT1 (unknown origin) at 10 uM after 120 mins P33 radiolabeled kinase activity assay.
Assay [18] relates to Fibroblast growth factor receptor. Kind of assay: Inhibition of FGFR (unknown origin) at 10 uM after 120 mins P33 radiolabeled kinase activity assay. Conditions: Homo sapiens.
In assay [19] the target is Mitogen-activated protein kinase kinase kinase 21 (Homo sapiens) (UniProt Q5TCX8). In words: Inhibition of MLK4 (unknown origin) at 10 uM after 120 mins P33 radiolabeled kinase activity assay.
Assay [20] deals with Dual specificity mitogen-activated protein kinase kinase 6 (Homo sapiens) (UniProt P52564). In words: Inhibition of MKK6 (unknown origin) at 10 uM after 120 mins P33 radiolabeled kinase activity assay.
Assay [21] addresses Serine/threonine-protein kinase ICK (Homo sapiens) (UniProt Q9UPZ9). In words: Inhibition of LCK2 (unknown origin) at 10 uM after 120 mins P33 radiolabeled kinase activity assay.
Assay [22] concerns the target Serine/threonine-protein kinase 16 (Homo sapiens) (UniProt O75716). In words: Inhibition of STK16 (unknown origin) at 10 uM after 120 mins P33 radiolabeled kinase activity assay.
The target of assay [23] is Mitogen-activated protein kinase kinase kinase 3 (Homo sapiens) (UniProt Q99759). Kind of assay: Inhibition of MEKK3 (unknown origin) at 10 uM after 120 mins P33 radiolabeled kinase activity assay.
Assay [24] addresses Serine/threonine-protein kinase tousled-like 2 (Homo sapiens) (UniProt Q86UE8). Kind of assay: Inhibition of TLK2 (unknown origin) at 10 uM after 120 mins P33 radiolabeled kinase activity assay.
Assay [25] has as its target Bone morphogenetic protein receptor type-1B (Homo sapiens) (UniProt O00238). Kind of assay: Inhibition of ALK6 (unknown origin) at 10 uM after 120 mins P33 radiolabeled kinase activity assay.
Assay [26] addresses Activin receptor type-1B (Homo sapiens) (UniProt P36896). In words: Inhibition of ALK4 (unknown origin) at 10 uM after 120 mins P33 radiolabeled kinase activity assay.
In assay [27] the target is TGF-beta receptor type-2 (Homo sapiens) (UniProt P37173). Kind of assay: Inhibition of TGFBR2 (unknown origin) at 10 uM after 120 mins P33 radiolabeled kinase activity assay.
Sequence of TGF-beta receptor type-2 (Homo sapiens) (P37173 whole entry): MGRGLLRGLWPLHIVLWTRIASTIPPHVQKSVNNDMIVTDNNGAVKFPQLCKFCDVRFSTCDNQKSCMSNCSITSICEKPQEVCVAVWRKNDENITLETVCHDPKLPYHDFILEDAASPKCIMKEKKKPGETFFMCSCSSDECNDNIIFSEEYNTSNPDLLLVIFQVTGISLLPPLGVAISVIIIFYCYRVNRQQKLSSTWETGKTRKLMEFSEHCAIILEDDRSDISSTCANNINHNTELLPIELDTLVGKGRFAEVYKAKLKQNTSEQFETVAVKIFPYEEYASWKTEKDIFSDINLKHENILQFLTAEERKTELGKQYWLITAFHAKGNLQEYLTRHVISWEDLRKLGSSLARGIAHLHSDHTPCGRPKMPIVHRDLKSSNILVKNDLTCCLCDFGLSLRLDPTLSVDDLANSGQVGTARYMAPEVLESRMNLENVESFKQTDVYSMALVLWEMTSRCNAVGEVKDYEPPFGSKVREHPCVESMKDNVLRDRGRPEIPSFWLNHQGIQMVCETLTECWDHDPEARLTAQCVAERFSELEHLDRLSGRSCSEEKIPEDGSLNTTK

Sequence of Serine/threonine-protein kinase Nek7 (Homo sapiens) (Q8TDX7 whole entry, looked up): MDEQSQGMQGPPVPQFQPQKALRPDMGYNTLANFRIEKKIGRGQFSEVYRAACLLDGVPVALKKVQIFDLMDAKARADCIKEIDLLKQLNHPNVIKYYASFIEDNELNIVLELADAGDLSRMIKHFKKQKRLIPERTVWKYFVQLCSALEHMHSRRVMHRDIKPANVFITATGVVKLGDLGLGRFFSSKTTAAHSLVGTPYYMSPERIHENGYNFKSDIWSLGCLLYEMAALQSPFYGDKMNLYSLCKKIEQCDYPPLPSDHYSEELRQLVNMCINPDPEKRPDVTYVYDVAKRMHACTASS
Sequence of Serine/threonine-protein kinase 3 (Homo sapiens) (Q13188 whole entry): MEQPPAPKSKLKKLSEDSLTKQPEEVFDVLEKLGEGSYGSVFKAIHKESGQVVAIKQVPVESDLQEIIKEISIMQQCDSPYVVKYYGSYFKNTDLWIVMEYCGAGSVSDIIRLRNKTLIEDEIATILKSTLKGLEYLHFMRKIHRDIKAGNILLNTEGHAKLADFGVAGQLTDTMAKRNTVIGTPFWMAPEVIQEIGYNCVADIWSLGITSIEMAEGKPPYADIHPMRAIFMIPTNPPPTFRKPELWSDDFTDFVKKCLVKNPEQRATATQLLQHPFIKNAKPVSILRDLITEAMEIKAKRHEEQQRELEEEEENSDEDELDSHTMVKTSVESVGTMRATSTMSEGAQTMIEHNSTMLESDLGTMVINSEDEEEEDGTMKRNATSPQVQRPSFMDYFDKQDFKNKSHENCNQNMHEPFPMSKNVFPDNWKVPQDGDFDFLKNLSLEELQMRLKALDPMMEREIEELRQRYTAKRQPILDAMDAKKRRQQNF
Sequence of Bone morphogenetic protein receptor type-1B (Homo sapiens) (O00238 whole entry): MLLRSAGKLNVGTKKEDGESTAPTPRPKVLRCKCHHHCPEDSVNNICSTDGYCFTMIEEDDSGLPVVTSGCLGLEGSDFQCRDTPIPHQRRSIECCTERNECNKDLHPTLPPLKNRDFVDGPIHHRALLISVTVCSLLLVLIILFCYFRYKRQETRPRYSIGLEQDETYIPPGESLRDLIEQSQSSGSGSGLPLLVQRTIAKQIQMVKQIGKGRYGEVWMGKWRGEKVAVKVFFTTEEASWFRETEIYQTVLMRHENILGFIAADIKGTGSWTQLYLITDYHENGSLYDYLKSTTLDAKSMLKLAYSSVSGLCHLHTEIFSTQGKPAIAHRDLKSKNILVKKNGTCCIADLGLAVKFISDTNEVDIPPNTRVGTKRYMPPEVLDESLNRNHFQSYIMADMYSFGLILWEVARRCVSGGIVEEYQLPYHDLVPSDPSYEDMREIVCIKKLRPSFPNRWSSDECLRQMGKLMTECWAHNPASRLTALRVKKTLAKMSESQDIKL

With `COCCNC(=O)c1ccc2c(c1)nc(-c1cnc(-c3ccc(Cl)cc3)[nH]1)n2CCOC`, the inhibition is 3.31% in assay [1]; 6.02% in [2]; -0.09% in assay [3]; 23.8% in assay [4]; 5.25% in assay [5]; -5.95% in [6]. The inhibition in assay [7] is 10.8%; in assay [8] it was -7.14%; in [9], -3.46%; in [10] it was -5.33%; in [11] it was -0.51%.
As to `CC(C)(C)c1cc(NC(=O)Nc2ccc(Oc3ccncc3)cc2)no1`, the inhibition in assay [12] was -8.59%; in [13] it was 53.8%; in assay [14], -4.91%; in assay [10], -4.9%; in assay [11], 7.1%.
As for `CS(=O)(=O)c1cccc(Nc2nccc(-c3sc(N4CCOCC4)nc3-c3cccc(NS(=O)(=O)c4c(F)cccc4F)c3)n2)c1`, the inhibition is -5.48% in [15]; -7.87% in assay [16]; 11.2% in assay [17]; 99.1% in assay [13]; 46.7% in assay [18]; 49.7% in assay [19]. In addition, the inhibition in [20] was 80.9%; in [21], -4.6%; in assay [2], 33.7%; in assay [22], 7.44%; in [23], 9.88%; in [5], 56.5%. The inhibition is -6.51% in [24]; 15.9% in assay [8]; 92.8% in [25]; 42.4% in assay [26]; 96.6% in assay [27].
